Measured values: patent US6727250B2, “Carboxylic acid amides, pharmaceutical compositions containing these compounds, their use and preparation” (Boehringer Ingelheim Pharma KG, priority 1999, dated 2004)

Molecular target: T1, telomerase in nuclear extracts from HeLa cells (Homo sapiens, UniProt O14746)
T1 construct: The activity of telomerase in nuclear extracts from HeLa cells; endogenous in cells; host or cells: HeLa-S3 nuclear extract (ATCC CCL-2.2), prepared according to Dignam
Test: Telomerase test: activity of telomerase in nuclear extracts from HeLa cells (method of Morin)
Assay type: biochemical
Conditions: concentration of inhibitor which inhibits the telomerase activity by 50%; HeLa nuclear extract, 120 minutes at 30° C., Phospho-Imager quantification
Method: The inhibiting effect of the carboxylic acid amides of general formula I on telomerase was investigated as follows: […]
1. Preparation of Nuclear Extracts from HeLa Cells:
Nuclear extracts were prepared according to Dignam (Dignam et al. in Nucleic Acids Res. 11, 1475-1489 (1983)). All the steps were carried out at 4° C., all the equipment and solutions were pre-cooled to 4° C. At least 1×10^9 HeLa-S3 cells growing in suspension culture (ATCC catalogue number CCL-2.2) were harvested by centrifuging for 5 minutes at 1000× g and washed once with PBS buffer ([…]; 2.7 mM KCl; 8.1 mM Na2HPO4; 1.5 mM KH2PO4). After the cell volume had been determined, the cells were suspended in 5 times the volume of hypotonic buffer (10 mM HEPES/KOH, pH 7.8; 10 mM KCl; 1.5 mM MgCl2) and then left for 10 minutes at 4° C. After centrifuging for 5 minutes at 1000× g the cell pellet was suspended in twice the volume of hypotonic buffer in the presence of 1 mM DTE and 1 mM PMSF and broken up with a Dounce homogeniser. The homogenised material was made isotonic with 0.1 volume of 10-fold saline buffer (300 mM HEPES/KOH, pH 7.8; 1.4 M KCl; 30 mM MgCl2). The cell nuclei were separated from the ingredients of the cytoplasm by centrifuging and then suspended in twice the volume of nuclear extraction buffer (20 mM HEPES/KOH, pH 7.9; 420 mM KCl; 1.5 mM MgCl2; 0.2 mM EDTA; 0.5 mM DTE; 25% glycerol). The nuclei were broken up using a Dounce homogeniser and incubated for 30 minutes at 4° C. with gentle stirring. Any insoluble ingredients were removed by centrifuging for 30 minutes at 10.000 rpm (SS-34 Rotor). Then the nuclear extract was dialysed for 4-5 hours against AM-100 buffer (20 mM tris/HCl, pH 7.9; 100 mM KCl; 0.1 mM EDTA; 0.5 mM DTE; 20% glycerol). The nuclear extracts obtained were frozen in liquid nitrogen and stored at −80° C.
The activity of telomerase in nuclear extracts from HeLa cells was determined using the method described by Morin (Morin in Cell 59, 521-529 (1989)). […] If the inhibition constant of potential telomerase inhibitors was to be determined, these were also added to the telomerase reaction in a concentration range of from 1 nM to 100 μM.
The reaction was then stopped by the addition of 50 μl of RNase stop buffer (10 mM tris/HCL, pH 8.0; 20 mM EDTA; 0.1 mg/ml of RNase A 100 U/ml of RNase T1; 1000 cpm of an α-^32P-dGTP labelled, 430 bp DNA fragment) and incubation was continued for a further 15 minutes at 37° C. Proteins present in the reaction mixture were cleaved by the addition of 50 μl of proteinase K buffer (10 mM tris/HCL, pH 8.0; 0.5% SDS; 0.3 mg/ml of proteinase K) and subsequent incubation for 15 min at 37° C. The DNA was purified by extracting twice with phenol-chloroform and precipitated by adding 2.4 M ammonium acetate; 3 μg tRNA and 750 μl ethanol. Then the precipitated DNA was washed with 500 μl of 70% ethanol, dried at ambient temperature, taken up in 4 μl of formamide probe buffer (80% (V/V) formamide; 50 mM of tris-borate, pH 8.3; 1 mM EDTA; 0.1 (w/v) of xylene cyanol; 0.1% (w/v) bromophenol blue) and separated by electrophoresis on a sequence gel (8% polyacrylamide, 7 M urea, 1× TBE buffer). The DNA synthesised by telomerase in the presence or absence of potential inhibitors was identified and quantified by Phospho-Imager Analysis (Molecular Dynamics) and in this way the concentration of inhibitor which inhibits the telomerase activity by 50% (IC50) was determined.

T1 sequence (O14746 whole entry): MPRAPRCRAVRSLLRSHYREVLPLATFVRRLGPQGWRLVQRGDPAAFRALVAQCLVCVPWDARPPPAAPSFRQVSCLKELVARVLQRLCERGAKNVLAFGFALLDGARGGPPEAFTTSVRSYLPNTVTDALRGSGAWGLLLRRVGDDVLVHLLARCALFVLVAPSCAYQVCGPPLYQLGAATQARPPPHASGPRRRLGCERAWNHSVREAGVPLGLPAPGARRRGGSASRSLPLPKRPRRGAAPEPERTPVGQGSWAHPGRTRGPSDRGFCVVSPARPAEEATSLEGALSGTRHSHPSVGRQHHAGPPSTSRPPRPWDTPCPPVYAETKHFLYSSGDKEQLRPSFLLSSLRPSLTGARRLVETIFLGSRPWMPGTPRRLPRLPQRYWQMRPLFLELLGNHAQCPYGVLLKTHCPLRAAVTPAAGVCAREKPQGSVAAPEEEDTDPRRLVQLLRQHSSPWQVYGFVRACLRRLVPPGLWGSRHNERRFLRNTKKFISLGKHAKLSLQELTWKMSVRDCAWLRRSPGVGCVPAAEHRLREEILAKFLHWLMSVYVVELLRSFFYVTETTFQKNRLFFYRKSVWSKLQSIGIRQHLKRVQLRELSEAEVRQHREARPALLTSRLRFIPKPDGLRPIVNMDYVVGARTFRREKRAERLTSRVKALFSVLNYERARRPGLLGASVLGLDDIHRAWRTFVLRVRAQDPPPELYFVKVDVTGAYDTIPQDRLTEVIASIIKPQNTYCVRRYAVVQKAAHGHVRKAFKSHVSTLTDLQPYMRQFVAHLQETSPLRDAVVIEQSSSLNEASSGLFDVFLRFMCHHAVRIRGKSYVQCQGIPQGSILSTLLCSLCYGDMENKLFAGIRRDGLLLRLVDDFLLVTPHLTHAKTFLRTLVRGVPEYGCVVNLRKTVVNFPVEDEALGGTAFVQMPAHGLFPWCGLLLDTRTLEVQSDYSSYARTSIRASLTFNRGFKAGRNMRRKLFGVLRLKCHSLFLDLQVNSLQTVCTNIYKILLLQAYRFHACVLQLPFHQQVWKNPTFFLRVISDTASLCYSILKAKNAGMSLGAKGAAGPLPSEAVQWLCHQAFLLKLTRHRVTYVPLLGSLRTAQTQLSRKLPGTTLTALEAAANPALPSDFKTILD
T1 sequence (O60832 whole entry partner): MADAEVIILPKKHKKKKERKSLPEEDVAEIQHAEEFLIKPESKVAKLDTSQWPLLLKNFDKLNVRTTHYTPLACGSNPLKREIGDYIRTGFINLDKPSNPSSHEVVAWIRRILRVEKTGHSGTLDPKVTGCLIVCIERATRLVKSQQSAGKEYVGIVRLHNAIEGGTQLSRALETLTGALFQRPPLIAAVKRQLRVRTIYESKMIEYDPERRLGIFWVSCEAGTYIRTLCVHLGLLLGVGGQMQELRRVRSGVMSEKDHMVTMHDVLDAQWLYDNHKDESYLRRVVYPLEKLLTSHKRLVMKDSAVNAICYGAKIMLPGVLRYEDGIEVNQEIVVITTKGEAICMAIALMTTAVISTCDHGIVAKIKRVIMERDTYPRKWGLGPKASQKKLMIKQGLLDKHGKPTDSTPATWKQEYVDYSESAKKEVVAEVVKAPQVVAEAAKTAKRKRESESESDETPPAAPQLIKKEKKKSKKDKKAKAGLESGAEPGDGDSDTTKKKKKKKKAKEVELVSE
T1 sequence (Q9NPE3 whole entry partner): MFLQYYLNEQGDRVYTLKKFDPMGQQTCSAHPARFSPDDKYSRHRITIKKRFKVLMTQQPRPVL
T1 sequence (Q9NX24 whole entry partner): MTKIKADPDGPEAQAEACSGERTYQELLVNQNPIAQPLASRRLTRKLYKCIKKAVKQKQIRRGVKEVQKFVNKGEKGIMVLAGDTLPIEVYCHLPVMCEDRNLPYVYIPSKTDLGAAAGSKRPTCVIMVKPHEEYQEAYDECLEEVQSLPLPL
T1 sequence (Q9NY12 whole entry partner): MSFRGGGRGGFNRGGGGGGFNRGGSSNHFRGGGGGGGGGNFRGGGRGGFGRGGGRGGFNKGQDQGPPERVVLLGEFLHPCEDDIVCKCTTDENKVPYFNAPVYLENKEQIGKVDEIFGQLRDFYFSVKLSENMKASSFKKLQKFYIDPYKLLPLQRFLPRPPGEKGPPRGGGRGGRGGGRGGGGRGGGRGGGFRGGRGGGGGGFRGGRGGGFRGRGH
T1 sequence (Q9BUR4 whole entry partner): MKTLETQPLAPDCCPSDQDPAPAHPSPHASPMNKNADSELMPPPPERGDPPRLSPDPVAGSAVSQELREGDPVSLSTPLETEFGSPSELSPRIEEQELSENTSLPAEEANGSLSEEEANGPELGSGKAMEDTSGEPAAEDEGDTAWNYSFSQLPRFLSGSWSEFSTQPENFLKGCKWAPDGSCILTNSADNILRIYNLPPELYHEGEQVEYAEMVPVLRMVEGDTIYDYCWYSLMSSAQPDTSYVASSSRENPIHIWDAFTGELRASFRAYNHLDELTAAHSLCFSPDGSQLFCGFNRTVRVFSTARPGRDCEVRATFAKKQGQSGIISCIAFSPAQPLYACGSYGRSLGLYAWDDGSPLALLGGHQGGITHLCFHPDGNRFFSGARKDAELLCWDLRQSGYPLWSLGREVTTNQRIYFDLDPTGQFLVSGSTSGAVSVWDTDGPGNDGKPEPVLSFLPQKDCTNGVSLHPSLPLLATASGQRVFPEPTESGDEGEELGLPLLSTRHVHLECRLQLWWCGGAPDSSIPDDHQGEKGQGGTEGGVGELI

IC50	Structure (SMILES)
5000 nM	C/C(=C\C(=O)Nc1ccccc1C(=O)O)c1ccc(Cl)c(Cl)c1 [Example 10, trans-3-(3,4-dichlorophenyl)-but-2-enoic acid-N-(2-carboxy-phenyl)-amide]
1000 nM	COc1cc(C(=O)O)c(NC(=O)/C=C(\C)c2ccc(Cl)c(Cl)c2)cc1C [Example 17, trans-3-(3,4-dichlorophenyl)-but-2-enoic acid-N-(2-carboxy-4-methoxy-5-methyl-phenyl)-amide]
40 nM	C/C(=C\C(=O)Nc1ccccc1C(=O)O)c1ccc2ccccc2c1 [Example 18, trans-3-(naphth-2-yl)-but-2-enoic acid-N-(2-carboxy-phenyl)-amide]
35 nM	COc1cc(NC(=O)/C=C(\C)c2ccc3ccccc3c2)c(C(=O)O)cc1OC [Example 28, trans-3-(naphth-2-yl)-but-2-enoic acid-N-(2-carboxy-4,5-dimethoxy-phenyl)-amide]
550 nM	C/C(=C\C(=O)Nc1cc(Cl)ccc1C(=O)O)c1ccc2ccccc2c1 [Example 29, trans-3-(naphth-2-yl)-but-2-enoic acid-N-(2-carboxy-5-chloro-phenyl)-amide]
100 nM	C/C(=C\C(=O)Nc1ccc(F)cc1C(=O)O)c1ccc2ccccc2c1 [Example 31, trans-3-(naphth-2-yl)-but-2-enoic acid-N-(2-carboxy-4-fluoro-phenyl)-amide]
